Reference: patent US5516790A, “Synthesis and application of alkyl-substituted dibenzofurans as antitumorigenic agents” (Texas A&M University System Technology Licensing Office, priority 1994, dated 1996)

Columns and labels:
female rat uterus = assay: Antiestrogenic effect on uterine wet weight, immature female Sprague-Dawley rats (Example 8); type: in vivo
estrogen receptor (ER) = assay: Uterine estrogen receptor levels, hydroxyapatite assay (Example 8); type: in vivo, female Sprague-Dawley rats
Experimental: A second group of animals was similarly treated with corn oil, TCDD, MCDF, or TCDD plus MCDF, all administered in corn oil at 10 ml/kg and terminated 72 hours later.
(§1) The animals were terminated by cervical dislocation. Livers were perfused with ice-cold TEDG buffer (10 mM Tris-HCl, 1.5 mM EDTA-4Na, 1 mM dithiothreitol, 10% glycerol (v/v), pH 7.4). Following perfusion in situ, livers were removed, weighed, and homogenized in ice-cold TEDG buffer. Uteri were also removed, weighed, and homogenized in ice-cold buffer. The homogenates were then centrifuged at 800×g ([…]) for 15 minutes and the nuclear pellets were stored at -80° C. The supernatants were further centrifuged at 180,000× g for 1.5 hours. The cytosolic supernatant was also stored at -80° C. Estrogen and progesterone receptor levels were determined within 7 days.
(§2) Estrogen (ER) and progesterone (PR) receptor levels were determined by the hydroxyapatite assay as described by Clark et al. (J. Steroid Biochem. 16:323-328, 1982) and incorporated herein by reference. […] Following the incubations, samples were counted and specific binding was calculated by subtraction of nonspecific from total binding. Assuming one steroid molecule binds to one estrogen/progesterone receptor, the number of moles of receptor can be calculated given the specific activity of the radioligand. The data presented in Tables 1 through 6 are means ± SD using at least four animals per treatment group. Significant differences were determined by analysis of variance.

[1] = system: progesterone receptor (PR); assay: Uterine progesterone receptor levels, hydroxyapatite assay (Example 8); type: in vivo, female Sprague-Dawley rats
Experimental: as §1, §2

[2] = 150 μmol/kg + E-2 (2 × 10 μg/rat), run B
[3] = compound alone, 150 μmol/kg (17β-estradiol: 2 × 10 μg/rat), run B
[4] = Table 3: 50 μmol/kg + E-2 (2 × 10 μg/rat)
[5] = Table 3: compound alone, 50 μmol/kg (17β-estradiol: 2 × 10 μg/rat)
[6] = Table 2: 50 μmol/kg + E-2 (2 × 10 μg/rat)
[7] = Table 2: compound alone, 50 μmol/kg (17β-estradiol: 2 × 10 μg/rat)
[8] = 150 μmol/kg + E-2 (2 × 10 μg/rat), run A
[9] = compound alone, 150 μmol/kg (17β-estradiol: 2 × 10 μg/rat), run A

## CCCc1cc(Cl)cc2c1oc1cc(Cl)cc(Cl)c12 [6-n-Propyl-1,3,8-triCDF]
Female rat uterus; [2]
  Uterine Wet Weight: 0.240 ± 0.019 % body wt
Female rat uterus; [3]
  Uterine Wet Weight: 0.118 ± 0.008 % body wt
Estrogen receptor (ER); [2]
  Estrogen Receptor Levels, Cytosolic: 169.4 ± 6.0 fmol/mg protein
  Estrogen Receptor Levels, Nuclear: 33.7 ± 1.7 fmol/mg protein
Estrogen receptor (ER); [3]
  Estrogen Receptor Levels, Cytosolic: 86.4 ± 8.1 fmol/mg protein
  Estrogen Receptor Levels, Nuclear: 35.4 ± 1.8 fmol/mg protein
[1]; [2]
  Progesterone Receptor Levels, Cytosolic: 1838 ± 62 fmol/mg protein
  Progesterone Receptor Levels, Nuclear: 408 ± 29 fmol/mg protein
[1]; [3]
  Progesterone Receptor Levels, Cytosolic: 740 ± 71 fmol/mg protein
  Progesterone Receptor Levels, Nuclear: 294 ± 21 fmol/mg protein

## CC(C)(C)c1cc(Cl)cc2c1oc1cc(Cl)cc(Cl)c12 [6-t-Butyl-1,3,8-triCDF]
Female rat uterus; [2]
  Uterine Wet Weight: 0.247 ± 0.004 % body wt
Female rat uterus; [3]
  Uterine Wet Weight: 0.122 ± 0.013 % body wt
Estrogen receptor (ER); [2]
  Estrogen Receptor Levels, Cytosolic: 108.6 ± 11.4 fmol/mg protein
  Estrogen Receptor Levels, Nuclear: 41.7 ± 2.1 fmol/mg protein
Estrogen receptor (ER); [3]
  Estrogen Receptor Levels, Cytosolic: 85.5 ± 4.3 fmol/mg protein
  Estrogen Receptor Levels, Nuclear: 41.4 ± 2.1 fmol/mg protein
[1]; [2]
  Progesterone Receptor Levels, Cytosolic: 1844 ± 77 fmol/mg protein
  Progesterone Receptor Levels, Nuclear: 270 ± 19 fmol/mg protein
[1]; [3]
  Progesterone Receptor Levels, Cytosolic: 1109 ± 83 fmol/mg protein
  Progesterone Receptor Levels, Nuclear: 211 ± 15 fmol/mg protein

## Cc1cc2oc3cc(Cl)c(Cl)cc3c2cc1Cl [7-Methyl-2,3,-triCDF, 7-methyl-2,3,8-trichlorodibenzofuran]
Female rat uterus; [4]
  Uterine Wet Weight: 0.255 ± 0.017 % body wt
Female rat uterus; [5]
  Uterine Wet Weight: 0.102 ± 0.011 % body wt
Estrogen receptor (ER); [4]
  Estrogen Receptor Levels, Cytosolic: 94.2 ± 4.71 fmol/mg protein
  Estrogen Receptor Levels, Nuclear: 48.1 ± 2.4 fmol/mg protein
Estrogen receptor (ER); [5]
  Estrogen Receptor Levels, Cytosolic: 72.9 ± 3.7 fmol/mg protein
  Estrogen Receptor Levels, Nuclear: 35.2 ± 1.8 fmol/mg protein
[1]; [4]
  Progesterone Receptor Levels, Cytosolic: 924 ± 74 fmol/mg protein
  Progesterone Receptor Levels, Nuclear: 554 ± 39 fmol/mg protein
[1]; [5]
  Progesterone Receptor Levels, Cytosolic: 501 ± 35 fmol/mg protein
  Progesterone Receptor Levels, Nuclear: 364 ± 26 fmol/mg protein

## Cc1cc2c(cc1Cl)oc1c(Cl)cc(Cl)c(Cl)c12 [8-Methyl-1,2,4,7-tetraCDF, 8-methyl-1,2,4,7-tetrachlorodibenzofuran]
Female rat uterus; [6]
  Uterine Wet Weight: 0.213 ± 0.017 % body wt
Female rat uterus; [7]
  Uterine Wet Weight: 0.175 ± 0.007 % body wt
Estrogen receptor (ER); [6]
  Estrogen Receptor Levels, Cytosolic: 118.4 ± 14.6 fmol/mg protein
  Estrogen Receptor Levels, Nuclear: 66.5 ± 8.9 fmol/mg protein
Estrogen receptor (ER); [7]
  Estrogen Receptor Levels, Cytosolic: 97.1 ± 10.1 fmol/mg protein
  Estrogen Receptor Levels, Nuclear: 40.6 ± 5.3 fmol/mg protein
[1]; [6]
  Progesterone Receptor Levels, Cytosolic: 841 ± 73 fmol/mg protein
  Progesterone Receptor Levels, Nuclear: 399 ± 75 fmol/mg protein
[1]; [7]
  Progesterone Receptor Levels, Cytosolic: 685 ± 59 fmol/mg protein
  Progesterone Receptor Levels, Nuclear: 303 ± 46 fmol/mg protein

## Cc1cc(Cl)c2oc3cc(Cl)cc(Cl)c3c2c1 [8-Methyl-1,3,6-triCDF]
Female rat uterus; [8]
  Uterine Wet Weight: 0.212 ± 0.021 % body wt
Female rat uterus; [9]
  Uterine Wet Weight: 0.089 ± 0.008 % body wt
Estrogen receptor (ER); [8]
  Estrogen Receptor Levels, Cytosolic: 65.9 ± 77.5 fmol/mg protein
  Estrogen Receptor Levels, Nuclear: 20.8 ± 70.5 fmol/mg protein
Estrogen receptor (ER); [9]
  Estrogen Receptor Levels, Cytosolic: 54.1 ± 6.2 fmol/mg protein
  Estrogen Receptor Levels, Nuclear: 38.1 ± 5.8 fmol/mg protein
[1]; [8]
  Progesterone Receptor Levels, Cytosolic: 838 ± 66 fmol/mg protein
  Progesterone Receptor Levels, Nuclear: 203 ± 35 fmol/mg protein
[1]; [9]
  Progesterone Receptor Levels, Cytosolic: 686 ± 77 fmol/mg protein
  Progesterone Receptor Levels, Nuclear: 188 ± 29 fmol/mg protein
